Measurements reported in patent publication US20210284638A1 (Saint Louis University, priority 2018, published 2021).
Counter-ions that a name gives are not always drawn.

Columns and labels:
[1] = molecular target: T1, Recombinant human integrin αVβ8 (Homo sapiens, UniProt P06756+P26012); assay: Solid Phase Receptor Assay for αVβ8 function; type: binding; conditions: plate-bound human LAP; read-out: αVβ8 SPRA IC50
T1 construct: purchased R&D Systems 4135-AV
Description: F. Solid Phase Receptor Assay (SFRA) for αVβ8 Function
Wells were washed 3 times with 150 μL TBS+ and then 150 μL of blocking buffer (TBS+ with 1% bovine serum albumin, Sigma A7906) was added. The plate was incubated for 1 hr at 37° C. and then washed 3× with TBS+. […] Compounds were diluted to 20 μM and 1 μL was added to each well of the plate according to a standard template with each sample repeated in triplicate. After incubation for two hours at room temperature, the plate was washed 3× with 150 μL of TBS+. To each well, 50 μL of biotinylated anti-αV antibody (R&D Systems, BAF1219) at 1 μg/mL in TBS+/0.1% BSA were added and the plate was covered and incubated for 1 hr at room temperature. After washing the plate 3× with 150 μL of TBS+ buffer, 50 μL of streptavidin-conjugated horseradish peroxidase (R&D Systems, DY998) diluted in TBS+ blocking buffer were added to the wells and the plate incubated for 20 min at room temperature. The plate was washed 3× with TBS+ followed by 50 μL of TMB substrate (Sigma T4444) added to each well in the dark and the plate incubated for 10 min at room temperature. 25 μL of 1.0 M phosphoric acid was added as a stop solution and the plates were read at 450 nm using a Spectramax plate reader.

[2] = molecular target: T2, Recombinant human integrin αVβ3 (Homo sapiens, UniProt P05106+P06756); assay: Solid Phase Receptor Assay for αVβ3 function; type: binding; conditions: plate-bound human vitronectin; read-out: αVβ3 SPRA IC50
T2 construct: purchased R&D Systems 3050-AV
T2 sequence (P06756 31-992 limits assumed): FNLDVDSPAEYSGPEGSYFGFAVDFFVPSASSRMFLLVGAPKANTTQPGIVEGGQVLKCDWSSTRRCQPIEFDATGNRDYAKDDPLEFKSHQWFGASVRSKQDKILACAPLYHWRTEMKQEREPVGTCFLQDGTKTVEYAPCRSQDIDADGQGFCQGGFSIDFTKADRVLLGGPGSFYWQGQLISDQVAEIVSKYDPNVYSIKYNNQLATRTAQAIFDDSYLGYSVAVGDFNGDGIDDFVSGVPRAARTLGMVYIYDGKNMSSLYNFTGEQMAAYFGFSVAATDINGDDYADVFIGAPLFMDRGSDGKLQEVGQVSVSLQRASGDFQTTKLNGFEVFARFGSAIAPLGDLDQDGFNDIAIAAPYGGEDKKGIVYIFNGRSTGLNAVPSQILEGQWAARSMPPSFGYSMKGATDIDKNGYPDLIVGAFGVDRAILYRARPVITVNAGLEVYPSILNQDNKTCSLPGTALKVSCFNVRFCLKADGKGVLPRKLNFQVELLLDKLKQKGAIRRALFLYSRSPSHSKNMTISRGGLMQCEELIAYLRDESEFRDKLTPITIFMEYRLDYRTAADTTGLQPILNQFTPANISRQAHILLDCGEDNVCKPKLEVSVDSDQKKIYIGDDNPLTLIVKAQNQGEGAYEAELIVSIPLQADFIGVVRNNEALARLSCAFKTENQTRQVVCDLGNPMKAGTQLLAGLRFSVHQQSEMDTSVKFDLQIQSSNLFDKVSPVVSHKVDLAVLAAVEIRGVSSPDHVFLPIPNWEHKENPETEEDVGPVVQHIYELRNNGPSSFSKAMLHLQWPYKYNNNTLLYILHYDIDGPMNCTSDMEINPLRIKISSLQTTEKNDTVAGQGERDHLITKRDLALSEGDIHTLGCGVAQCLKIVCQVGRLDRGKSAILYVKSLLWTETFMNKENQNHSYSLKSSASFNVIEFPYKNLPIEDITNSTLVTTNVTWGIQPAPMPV
T2 sequence (P05106 27-718 limits assumed): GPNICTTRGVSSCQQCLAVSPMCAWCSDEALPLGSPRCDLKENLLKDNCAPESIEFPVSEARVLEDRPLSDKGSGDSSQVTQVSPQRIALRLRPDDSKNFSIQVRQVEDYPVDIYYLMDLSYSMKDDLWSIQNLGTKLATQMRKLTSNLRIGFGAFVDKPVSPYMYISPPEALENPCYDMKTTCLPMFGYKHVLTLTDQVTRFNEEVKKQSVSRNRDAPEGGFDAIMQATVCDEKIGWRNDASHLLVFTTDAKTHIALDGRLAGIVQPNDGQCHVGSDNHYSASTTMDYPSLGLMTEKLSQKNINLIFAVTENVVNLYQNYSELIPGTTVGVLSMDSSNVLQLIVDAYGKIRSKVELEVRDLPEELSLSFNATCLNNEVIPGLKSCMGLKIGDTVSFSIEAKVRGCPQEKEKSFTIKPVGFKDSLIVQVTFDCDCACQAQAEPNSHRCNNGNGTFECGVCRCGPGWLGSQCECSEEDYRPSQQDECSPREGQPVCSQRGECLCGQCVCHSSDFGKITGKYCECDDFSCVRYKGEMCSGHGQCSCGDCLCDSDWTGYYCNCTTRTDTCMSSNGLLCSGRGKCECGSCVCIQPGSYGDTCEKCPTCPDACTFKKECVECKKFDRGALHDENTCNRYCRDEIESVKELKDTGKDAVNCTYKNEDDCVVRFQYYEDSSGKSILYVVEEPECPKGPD
Description: C. […] Wells were washed 3 times with 150 μL TBS+ and then 150 μL of blocking buffer (TBS+ with 1% bovine serum albumin, Sigma A7906) was added. The plate was incubated for 1 hr at 37° C. and then washed 3× with TBS+ buffer. […] Compounds were diluted to 20 μM and then 1 μL was added to each well of the plate according to a standard template with each sample repeated in triplicate. After incubation for two hours at room temperature, the plate was washed 3× with 150 μL of TBS+ buffer. To each well, 50 μL of biotinylated anti-αV antibody (R&D Systems, BAF1219) at 0.5 μg/mL in TBS+/0.1% BSA were added and the plate covered and incubated for 1 hr at room temperature. After washing the plate 3× with 150 μL of TBS+ buffer, 50 μL of streptavidin-conjugated horseradish peroxidase (R&D Systems, DY998) diluted in TBS+ blocking buffer were added to the wells and the plate incubated for 20 min at room temperature. The plate was washed 3× with TBS+ buffer followed by 50 μL of TMB substrate (Sigma, T4444) added to each well in the dark and the plate was incubated for 25 min at room temperature. 25 μL of 1.0 M phosphoric acid was added as a stop solution and the plates were read at 450 nm using a Spectramax plate reader.

T1 sequence (P06756 31-992 limits assumed): as the sequence (P06756 31-992 limits assumed) above
T1 sequence (P26012 43-684 limits assumed): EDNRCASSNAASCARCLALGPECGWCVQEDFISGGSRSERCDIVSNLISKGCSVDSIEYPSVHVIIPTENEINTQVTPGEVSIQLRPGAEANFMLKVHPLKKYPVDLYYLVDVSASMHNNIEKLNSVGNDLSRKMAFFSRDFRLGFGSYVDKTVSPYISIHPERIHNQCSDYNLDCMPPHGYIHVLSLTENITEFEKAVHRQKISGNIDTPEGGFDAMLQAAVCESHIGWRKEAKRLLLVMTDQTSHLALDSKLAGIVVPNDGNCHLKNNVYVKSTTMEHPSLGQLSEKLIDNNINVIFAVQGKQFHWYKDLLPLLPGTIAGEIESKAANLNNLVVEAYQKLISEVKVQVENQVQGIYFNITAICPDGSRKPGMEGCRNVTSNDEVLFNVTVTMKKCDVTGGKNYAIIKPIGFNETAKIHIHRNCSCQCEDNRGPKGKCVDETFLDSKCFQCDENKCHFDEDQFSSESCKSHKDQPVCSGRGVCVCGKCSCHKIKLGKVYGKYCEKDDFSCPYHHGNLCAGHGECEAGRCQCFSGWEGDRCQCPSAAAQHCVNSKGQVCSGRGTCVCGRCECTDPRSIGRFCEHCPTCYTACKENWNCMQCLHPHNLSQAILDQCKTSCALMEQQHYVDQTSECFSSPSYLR

| Compound | IC50 [1] [nM] | IC50 [2] [nM] |
| --- | --- | --- |
| Cn1nc(CC(CC(=O)O)c2cc(C(C)(C)C#N)cc(C(C)(C)C#N)c2)cc1OCCc1ccc2c(n1)NCCC2 (stereo not shown) [Example 41, 3-(3,5-bis(2-cyanopropan-2-yl)phenyl)-4-(1-methyl-5-(2-(5,6,7,8-tetrahydro-1,8-naphthyridin-2-yl)ethoxy)-1H-pyrazol-3-yl)butanoic acid trifluoroacetate] | 1 | 9 |
| COc1ccc(C2=CCOCC2)cc1C(CC(=O)O)Cc1cc(OCCc2ccc3c(n2)NCCC3)n(C)n1 (stereo not shown) [Example 42] | 41 | 58 |
| COc1ccc(C2CCOCC2)cc1C(CC(=O)O)Cc1csc(CCCc2ccc3c(n2)NCCC3)n1 (stereo not shown) [Example 43, 3-(2-methoxy-5-(tetrahydro-2H-pyran-4-yl)phenyl)-4-(2-(3-(5,6,7,8-tetrahydro-1,8-naphthyridin-2-yl)propyl)thiazol-4-yl)butanoic acid] | 210 | 520 |
| COc1ccc(C(CC(=O)O)Cc2cc(OCCc3ccc4c(n3)NCCC4)n(C)n2)cc1F (stereo not shown) [Example 44, 3-(3-fluoro-4-methoxyphenyl)-4-(1-methyl-5-(2-(5,6,7,8-tetrahydro-1,8-naphthyridin-2-yl)ethoxy)-1H-pyrazol-3-yl)butanoic acid] | 80 | 2.3 |
| COCC1(c2ccc(OC)c(C(CC(=O)O)Cc3cc(OCCc4ccc5c(n4)NCCC5)n(C)n3)c2)CCOCC1 (stereo not shown) [Example 45, 3-(2-methoxy-5-(4-(methoxymethyl)tetrahydro-2H-pyran-4-yl)phenyl)-4-(1-methyl-5-(2-(5,6,7,8-tetrahydro-1,8-naphthyridin-2-yl)ethoxy)-1H-pyrazol-3-yl)butanoic acid] | 1000 | 1200 |
| COc1ccc(C2CCOCC2)cc1C(CC(=O)O)Cc1cc(OCCc2ccc3c(n2)NCCC3)n(C)n1 (stereo not shown) [Example 46, 3-(2-methoxy-5-(tetrahydro-2H-pyran-4-yl)phenyl)-4-(1-methyl-5-(2-(5,6,7,8-tetrahydro-1,8-naphthyridin-2-yl)ethoxy)-1H-pyrazol-3-yl)butanoic acid] | 250 | 310 |
| Cn1nc(C[C@@H](CC(=O)O)c2cc3c(c(C(C)(C)C)c2)OCO3)cc1OCCc1ccc2c(n1)NCCC2 [Example 47] | 34 | 1.8 |
| COCC1(c2ccc(OC)c([C@H](CC(=O)O)Cc3cc(OCCc4ccc5c(n4)NCCC5)n(C)n3)c2)CCOCC1 [Example 48, (S)-3-(2-methoxy-5-(4-(methoxymethyl)tetrahydro-2H-pyran-4-yl)phenyl)-4-(1-methyl-5-(2-(5,6,7,8-tetrahydro-1,8-naphthyridin-2-yl)ethoxy)-1H-pyrazol-3-yl)butanoic acid] | 540 | 690 |
